The source of these data is patent publication US11786494B2, “Methods of modulation of branched chain acids and uses thereof” (Baylor College of Medicine, priority 2009, dated 2023).

For data set [1], the target named is T1, BCKDC (Homo sapiens, UniProt P12694+P21953).
T1 sequence (P12694 46-445): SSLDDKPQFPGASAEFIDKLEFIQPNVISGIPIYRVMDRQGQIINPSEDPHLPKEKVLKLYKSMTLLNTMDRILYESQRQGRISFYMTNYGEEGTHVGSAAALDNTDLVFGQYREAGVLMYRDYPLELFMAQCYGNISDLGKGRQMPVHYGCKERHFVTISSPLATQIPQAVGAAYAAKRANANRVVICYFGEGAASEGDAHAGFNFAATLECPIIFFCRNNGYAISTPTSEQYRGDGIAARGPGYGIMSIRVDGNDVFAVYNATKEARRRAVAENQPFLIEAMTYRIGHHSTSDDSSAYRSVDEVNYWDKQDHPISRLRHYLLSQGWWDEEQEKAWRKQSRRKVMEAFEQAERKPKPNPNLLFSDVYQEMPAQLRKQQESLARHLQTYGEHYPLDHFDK
T1 sequence (P21953 51-392): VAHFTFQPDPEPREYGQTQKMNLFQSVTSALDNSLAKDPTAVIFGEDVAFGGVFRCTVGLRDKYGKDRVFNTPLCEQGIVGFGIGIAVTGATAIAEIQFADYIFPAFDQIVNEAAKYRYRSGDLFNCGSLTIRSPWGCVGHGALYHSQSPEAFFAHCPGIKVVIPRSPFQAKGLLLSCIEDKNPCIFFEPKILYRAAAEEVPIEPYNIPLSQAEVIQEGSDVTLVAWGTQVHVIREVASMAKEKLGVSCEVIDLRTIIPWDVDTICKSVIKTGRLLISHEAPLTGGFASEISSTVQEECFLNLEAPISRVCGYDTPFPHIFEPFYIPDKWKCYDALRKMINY
In words: Overall BCKDC activity assay (reconstituted E1, lip-E2, E3; NADH formation). It counts as biochemical. Particulars: Activity of BCKDC, [+] Phenylbutyrate. Here is the method: (§1) To determine the effect of phenylbutyrate on individual BCAA catabolic enzymes, activities of mitochondrial branched chain amino transferase (BCATm) and BCKDC enzymes were measured with and without phenylbutyrate using purified recombinant enzymes. BCATm generates the BCKA products that are elevated in MSUD and are the substrates for BCKDC. BCATm activity was measured at pH 8.0 and 298 K as described in Example 2. Kinetics of the E1 decarboxylase reaction with and without phenylbutyrate were determined in the presence of an artificial electron acceptor 2, 6-dichlorophenolindophenol (DCPIP). The assay mixture contained 100 mM potassium phosphate, pH 7.5, 2.0 mM MgCl2, 0.2 mM thiamin diphosphate (ThDP) and 0.1 mM DCPIP. The rate of decarboxylation at 30° C. was measured by monitoring the reduction of the dye at 600 nm (24, 25). For the overall BCKDC activity assay, the enzymes were exchanged into phosphate buffer (30 mM potassium phosphate, pH 7.5) containing 5 mM DTT using a PD-10 column and the enzyme concentrations were calculated from the absorption maxima at 280 nm. […] The overall reaction was monitored by formation of NADH at 340 nm. The apparent rate constants (kapp) at different substrate concentrations for all of the above assays were determined from the absorption changes at the individual wavelength maximum. […]

The conditions of data set [2]: cited from earlier work.
Data set [3] relates to BCKDC subunit and BDK transcripts. In words: BCKDC transcript levels by quantitative RT-PCR in liver and muscle. Type of data set: in vivo, C57B6 mice. Here is the method:
The mice (n=5) were treated with saline or 50 mg/kg/day of phenylbutyrate divided into three administrations for three consecutive days and after three days of treatment they were sacrificed for analyses.
Since PBA is a known histone deacetylase (HDAC) inhibitor, transcript levels of BCKDC were measured following treatment with PBA using quantitative RT-PCR. Five wild type mice were treated with either placebo or PBA. Following treatment the liver and muscle cells were harvested. RNA was isolated and subject to real time RT-PCR to assess the transcript levels of all the subunits of the BCKDC and regulatory kinase.

In data set [4] the target is T2, E1 (unphosphorylated) of BCKDC (Homo sapiens, UniProt P12694+P21953).
T2 sequence (P12694 46-445): T1 sequence (P12694 46-445)
T2 sequence (P21953 51-392): T1 sequence (P21953 51-392)
The data set is described as follows: E1 catalyzed decarboxylase activity (DCPIP assay). Type of data set: biochemical. Here is the method: as §1

Regarding `O=C([O-])CCCc1ccccc1.[Na+]` [phenylbutyrate, sodium 4-phenylbutyrate], in data set [1], the “kcat, KMV” value is 3.767 ± 0.3 s⁻¹. The “time at which measurable plasma levels are detected” value in data set [2] (after oral administration of phenylbutyrate) was 15 min. Moreover, in data set [2] (oral administration), the “Peak concentrations of phenylbutyrate” value is “approximately 1 mmol/1” and the “time at which peak concentrations are reached” value is 1 h. For the same compound, the elimination half-life in data set [2] (oral phenylbutyrate, estimated) was 48 min. Also, the “fraction of the drug excreted by the kidneys as the conjugated product PAG” value in data set [2] (within 24 h, most subjects) was 80-100%. For the same compound, in data set [3] (liver and muscle, 50 mg/kg/day for 3 days (FIG. 6), listed as PBA, 50 mg/kg/day), the “transcript levels of any of the subunits of the BCKDC or of BDK, placebo vs treated” value was “No significant changes”. Besides, the “transcript levels of E1A, E1B, E2” value in data set [3] (liver, p<0.006) is recorded as “significantly reduced”. In data set [4] (E1 catalyzed decarboxylase activity, [+] Phenylbutyrate), the “kcat, KMV” value is 0.3 ± 0.0167 s⁻¹. For the same compound, in data set [4] (increased kcat, lowered Km), the “unphosphorylated E1 (fully active enzyme) catalyzed decarboxylation of all three BCKA” value was “enhanced”.
